Each structure is given as a SMILES string. Structures can show the parent of a compound that is named as a salt. Where two headings read alike, the source gives them in different places.

The IC50 is the concentration that inhibits the measured activity by half. High values mean lower potency, low ones higher potency. What is called ED50 is the midpoint of the dose-response relation.

One test relates to mice. Put plainly: Phenylbenzoquinone (PBQ) Writhing Assay. The class given is in vivo, mouse (Charles River male albino mice). The conditions noted are these: for ED50: Mus musculus, 0.5 h. The source says:
The Writhing Assay is one of the most widely-used experimental procedures for measuring the analgesic activity of different narcotic and nonnarcotic analgesic agents, and involves the continuous, chemically-induced pain of visceral origin to an animal, such as a mouse or rat. [Gyires et al., Arch. int. Pharmacodyn, 267, 131-140 (1984); C. Vander Wende et al., Fed. Proc., 15, 494 (1956); Koster et al., Fed. Proc., 18, 412 (1959); and Witken et al., J. PharmacoI. exp. Tger., 133, 400-408 (1961).] Chemicals which may be used to induce this pain include phenylbenzoquinone (PBQ) and acetic acid. As a result of the chemical irritation to the animal, a characteristic stretching and writhing of the animal (dorsiflexion of the animal's back, extension of its hindlimbs and the strong contraction of its abdominal musculature) will generally occur. […] Drugs which reduce the number of writhes of the animal appear to restore the normal nociceptive threshold of the animal.
Charles River male albino mice, weighing 20 to 30 grams were used in this assay.
Thirty minutes after subcutaneous or intragastric administration to ten mice of either 10 mg or 30 mg per kilogram of body weight of a compound of the present invention ("test compound"), […] of body weight of a 0.025% w/v solution of PBQ was injected intraperitoneally into each mouse. Ten mice which were given saline in place of a test compound of the invention were used as a control group.
Five minutes later, each mouse was individually placed into a glass beaker for observation, and the number of writhes occurring during the following ten-minute period was counted.
A test compound was considered to be "active" in this assay (to have produced analgesia in a mouse) if, after the administration of the compound to the mouse, the number of writhes elicited by a mouse injected with PBQ was equal to, or less than, one-half the median number of writhes recorded for the saline-treated control group of mice that day, as described by Taber in "Predictive Value of Analgesic Assays in Mice and Rats," Advances in Biochemical Psychopharmacology, 8, 191 (1974).
The standard initial screening doses of a test compound employed in this assay were 10 and/or 30 […] for both routes of administration.
(In writhing tests, fewer writhes than in controls are read as antinociception.)

For the next test, the target named is μ opioid receptors (Rattus norvegicus, UniProt P33535). Put plainly: Opiate Binding Assay, displacement of 3[H]-DAMGO (μ receptor).
A further test has as its target δ opioid receptors (Rattus norvegicus, UniProt P33533). Put plainly: Opiate Binding Assay, displacement of 3[H]-DSLET (δ receptor). As to conditions: for Mean IC50 μ/δ Ratio: ratio of mean IC50 values for μ and δ opioid receptors.
Setting [1] is: subcutaneous, screening doses 10 and/or 30 mpk.

μ opioid receptors, sequence (P33535 whole entry): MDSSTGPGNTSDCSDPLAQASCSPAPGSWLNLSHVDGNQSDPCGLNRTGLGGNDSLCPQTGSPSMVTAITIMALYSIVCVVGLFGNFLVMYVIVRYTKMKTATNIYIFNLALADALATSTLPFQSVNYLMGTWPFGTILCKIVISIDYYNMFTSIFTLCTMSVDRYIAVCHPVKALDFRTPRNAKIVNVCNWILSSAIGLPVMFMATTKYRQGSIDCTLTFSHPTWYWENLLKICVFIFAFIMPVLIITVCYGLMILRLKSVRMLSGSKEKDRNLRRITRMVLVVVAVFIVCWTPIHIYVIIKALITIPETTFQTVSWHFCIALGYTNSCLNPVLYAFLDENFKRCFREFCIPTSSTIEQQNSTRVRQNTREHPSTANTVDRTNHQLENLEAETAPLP
δ opioid receptors, sequence (P33533 whole entry): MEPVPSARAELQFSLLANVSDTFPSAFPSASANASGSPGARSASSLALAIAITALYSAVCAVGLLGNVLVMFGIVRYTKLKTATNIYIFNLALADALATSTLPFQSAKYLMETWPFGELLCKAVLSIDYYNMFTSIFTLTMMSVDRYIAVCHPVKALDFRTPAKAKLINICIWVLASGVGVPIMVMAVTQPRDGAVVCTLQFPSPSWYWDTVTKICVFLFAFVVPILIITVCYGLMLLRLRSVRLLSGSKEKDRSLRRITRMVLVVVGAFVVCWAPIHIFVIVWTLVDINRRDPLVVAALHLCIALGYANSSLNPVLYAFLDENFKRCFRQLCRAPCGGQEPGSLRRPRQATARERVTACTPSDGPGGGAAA

On to `C=CCN1CC[C@]23c4c5ccc(O)c4O[C@H]2c2[nH]c4c(Br)cccc4c2C[C@@]3(O)[C@H]1C5` [X, 13-Bromo-5,6,7,8,14, 14bβ-hexahydro-7-(2-propenyl)-4,8(R,α)-methano-4bS^* -benzofuro [2,3-a]pyrido[4,3-b]carbazole-1,8aβ(9H)-diol monohydrochloride], for which the “Number of mice in 10 exhibiting inhibition of writhing, I.G.” value with mice (intragastric, screening doses 10 and/or 30 mpk) was 5/10. For the same molecule, the “Number of mice in 10 exhibiting inhibition of writhing, S.C.” value in the test with mice (setting [1]) was 5/10. In addition, the IC50 on μ opioid receptors turned out to be 3.9 µM. Also, on δ opioid receptors, the IC50 turned out to be 0.0111 µM and the “Mean IC50 μ/δ Ratio” value is given as 350.
For `C=CCN1CC[C@]23c4c5ccc(O)c4O[C@H]2c2oc4ccccc4c2C[C@@]3(O)[C@H]1C5` [IX, 6,7,8,14β-Tetrahydro-7-(2-propenyl)-4,8(R,α)-methano-4bS^* -5H-bisbenzofuro[3,2-e:2',3'-g] isoquinoline-1,8aβ(9H)-diol, monohydrochloride], the median effective dose (ED50) with mice (po, intragastric, 30 min before PBQ, read-out: PBQ WRITHING ASSAY ED50 (mpk) I.G.) amounted to 3.9 mg/kg; in the test on mice (sc, subcutaneous, 30 min before PBQ, read-out: PBQ WRITHING ASSAY ED50 (mpk) S.C.) it was 2.8 mg/kg. Also, the IC50 at μ opioid receptors was 0.236 µM; on δ opioid receptors, 0.00021 µM. The “Mean IC50 μ/δ Ratio” value on δ opioid receptors amounted to 1100.
On to `CN1CC[C@]23c4c5ccc(O)c4O[C@H]2c2[nH]c4c(Br)cccc4c2C[C@H]3[C@H]1C5` [XIII, 13-Bromo-5,6,7,8,8a,9,14,14bβ-octahydro-7-methyl-4,8(R,α)-methano-4bS^* -benzofuro [2,3-a]pyrido[4,3-b]carbazol-1-ol, monohydrochloride], for which, in the test with mice (intragastric, 30 min before PBQ), the “PBQ WRITHING ASSAY ED50 (mpk) I.G.” value is “inactive”. The “Number of mice in 10 exhibiting inhibition of writhing, S.C.” value in the test on mice (setting [1]) was 4/10. For the same molecule, the figures for the IC50 at μ opioid receptors and at δ opioid receptors were 0.265 µM and 0.052 µM, respectively. Further, on δ opioid receptors, the “Mean IC50 μ/δ Ratio” value amounted to 5.1.

These data come from patent US5223507A, “Method of using opioid compounds as delta opioid selective agonist analgesics” (G. D. Searle & Co., priority 1992, dated 1993).
